Measurements: ChEMBL document CHEMBL1142612, “A meroterpenoid NF-kappaB inhibitor and drimane sesquiterpenoids from Asafetida” (J Nat Prod, 2006)
Calls of active or inactive are those of the source. The calls are words filed in the database; no cut-off is given here.

Experiments:
[1] = Inhibition of NF-kappaB in TNF-alpha-stimulated human cloned Jurkat 5.1 cells cotransfected with HIV1-LTR promoter preincubated for 30 mins before TNFalpha challenge after 6 hrs by luciferase reporter gene assay; format: cell-based
A549 [2] = assay: Inhibition of NF-kappaB in TNF-alpha-stimulated human A549 cells cotransfected with KBF-luciferase gene preincubated for 30 mins before TNFalpha challenge after 6 hrs by luciferase reporter gene assay; format: cell-based
HeLa = assay: Cytotoxicity against human HeLa cells using propidium iodide staining by flow cytometry; format: functional, cell-based
A549 [3] = assay: Cytotoxicity against human A549 cells using propidium iodide staining by flow cytometry; format: functional, cell-based
Jurkat = assay: Cytotoxicity against human cloned Jurkat 5.1 cells using propidium iodide staining by flow cytometry; format: functional, cell-based

Compound	IC50 [1] [µM]	Activity (A549 [2])	Activity (HeLa)	Activity (A549 [3])	Activity (Jurkat)
CC1=CC(=O)C2=C(C)CC3OC(=O)C(C)=C3C=C12 (configuration not stated) [TARAXACIN]	57.6				
CC(=O)OC(CC=C(C)C)/C(C)=C/C(O)C/C(C)=C/COc1ccc2ccc(=O)oc2c1 (configuration not stated)	15.1	Dose-dependent effect	inactive	inactive	inactive
CC(C)=CCC(O)/C(C)=C/C(O)C/C(C)=C/COc1ccc2ccc(=O)oc2c1 (configuration not stated)	37.5				
